According to patent publication US8207188B2, “Treatment of diseases modulated by a H4 receptor agonist” (priority 2006, dated 2012):

What was measured:
[1] = tested on: human TF1 cells that express H4R; test: TF1 cell proliferation assay (GM-CSF promoted); format: cell-based
Method: Tritoqualine was tested on a cell proliferation assay using human TF1 cells that express H4R.
TF1 cell proliferation is promoted using granulocyte/macrophage colony-stimulating factor (GM-CSF). In this cell proliferation model H4R agonists inhibit cell proliferation. Clobenpropit (CB), a known H4R agonist at a dose of 10^−5M (10 μM) was used as a known cell proliferation inhibition control. […] Each experiment used 100,000 TF1 cells/mL incubated for three days with GM-CSF (10 ng/mL). After addition of TRQ in the range of 10^−5M (10 μM) to 10^−7 M (0.1 μM), and incubation for 3 days, cell proliferation was assessed and compared to that of 10 μM CB.

H4R = target: T1, H4R (Mus musculus, UniProt Q91ZY2); test: Cell cycle status after H4R silencing with siRNA; format: cell-based; settings: 10 μM; H4R siRNA transfected c-kit+ cells
T1 construct: endogenous in cells; host or cells: freshly sorted c-kit+ haematopoietic progenitor cells
T1 sequence (Q91ZY2 1-391): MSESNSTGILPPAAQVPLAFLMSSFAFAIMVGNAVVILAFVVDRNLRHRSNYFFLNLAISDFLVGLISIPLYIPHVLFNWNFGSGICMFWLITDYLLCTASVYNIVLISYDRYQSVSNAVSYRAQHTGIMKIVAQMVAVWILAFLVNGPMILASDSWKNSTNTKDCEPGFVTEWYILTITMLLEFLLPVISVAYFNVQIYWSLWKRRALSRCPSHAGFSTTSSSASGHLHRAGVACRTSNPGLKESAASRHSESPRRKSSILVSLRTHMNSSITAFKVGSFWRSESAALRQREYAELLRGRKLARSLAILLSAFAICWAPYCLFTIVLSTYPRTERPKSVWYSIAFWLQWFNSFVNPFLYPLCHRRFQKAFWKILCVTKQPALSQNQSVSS
Method: H4R silencing was performed with freshly sorted c-kit^+ cells. For transfection, 3 μl of HiPerFect reagent (Qiagen; Courtaboeuf, France) and 4 μl ([…]) of human and 8 μl (80 pmol) of murine H4R siRNA, scrambled FITC-labeled or unconjugated control siRNAs (all from Santa Cruz Biotechnology) were incubated in 50 μl x-vivo medium (Cambrex; East Rutherford, N.J.) for 20 min at room temperature. The mixture was then added to 50 μl of cell suspension at a final concentration of 10^6 cells/ml and incubated for 20 h, when transfection efficiency was verified with scrambled FITC-conjugated siRNA. Cells were then centrifuged and resuspended at a concentration of 10^5 cells/ml in StemSpan medium with growth factor cocktail. The extinction of H4R protein expression was ascertained by FACS analysis after 24 h. After 3 days of culture with or without tritoqualine (10 μM) or Clobenpropit (10 μM) cells were counted and their viability was assessed by trypan blue exclusion. The cell cycle status was assessed after an overnight incubation.

[2] = tested on: Colony Forming Cells (CFC, mouse medullary cells C57B1/6) expressing H4R; test: Cell cycle analysis of haematopoietic progenitor cells (propidium iodide, FACS); format: cell-based; settings: 10 μM
Method: Haematopoietic progenitor cells were incubated for 1-3 day(s) with a cocktail of growth factors (IL-3, 10 ng/ml, IL-6 10 ng/ml), […] (50 ng/ml) in the culture medium StemSpan® (without serum) in the presence and absence of TRQ and H4R antagonist (JNJ7777120, Sigma Aldrich).
Cells were later stained with propidium iodide (PI) for the analysis of the cell cycle according to the following protocol:
2×10^6 cells/ml were labelled with CD1 17-FITC for 20 min in PBS, then washed in PBS and stained with PBS 1% formaldehyde, without methanol, at 4° C. for 5 min and again washed in PBS.
The cells were then lysed with 1 ml of PVTritonX100 and RNAse without DNAse (0.2 mcg/ml), PI (20 mcg/ml), and incubated in PBS for 30 min at ambient temperature.
The lysed cells were analyzed with FACS scan (FL2-area IFL2-width) for cell cycle analysis and FL1 for labelling of cell Surface.
10^6 cells enriched in haematopoietic stem cells were incubated in 2 ml of CFSE […] in PBS 10 min, 37° C. The reaction was stopped by the addition of cold PBS in excess (5×) and centrifuged for 5 min at 1700 rpm.
Cells were resuspended in the culture medium StemSpan® (without serum) and stimulated with the growth Factor cocktail, and analyze in FACs scan (FL1) after 72 hours incubation.

c-kit+ BM cells = test: Cell cycle status of c-kit+ BM cells with pertussis toxin; format: cell-based, murine; settings: 10 μM, 2 h
Method: Progenitor-enriched murine c-kit^+ BM or cord blood-derived CD34^+ cells were prepared by positive magnetic selection, suspended at a final concentration of 10^5 per ml in serum-free StemSpan medium (StemCell Technologies) and cultured up to 3 days in the presence of 10 ng of IL-3, 10 ng of IL-6 and 50 ng of SCF (Stem Cell Factor) per ml, with or without Clobenpropit (10^−5 M), Tritoqualine or both.
Magnetically sorted c-kit^+ BM cells were incubated for 2 h in StemSpan medium with growth factor cocktail alone or in the presence of 10^−5 M Clobenpropit, Tritoqualine or enantiomers. The cell cycle status was then assessed using Vybrant DyeCycle Violet (VDV) Stain (Invitrogen), according to the manufacturer's instructions.
The effect of Bordetella pertussis toxin (PTX; 100 ng/ml), an inhibitor of Gi/o coupling to the H4R, on the cell cycle arrest promoted by receptor activation was evaluated in the same conditions. After incubation, cells were analyzed using FlowJo software.

SMILES	inhibition of cell proliferation ([1]; 0.1 μM)	inhibition at 10 µM ([1]; Homo sapiens, TF-1, 72 h, 10 μM, 3 days, three separate assays (n=3))	inhibition at 1 µM ([1]; Homo sapiens, TF-1, 1 μM)	activity inhibiting the cell cycle at the G0/G1 phase after H4R siRNA (H4R)	haematopoietic progenitor cells blocked (G0/G1) [2]	H4R agonist activity (percentage of cells at the G0/G1 phase) (c-kit+ BM cells)
CCOc1c(N)c2c(c(OCC)c1OCC)C(C1c3c(cc4c(c3OC)OCO4)CCN1C)OC2=O (racemic) [Tritoqualine, 7-Amino-4,5,6-triethoxy-3-(5,6,7,8-tetrahydro-4-methoxy-6-methyl-1,3-dioxolo[4,5-g]isoquinolin-5-yl) phthalide]	no inhibition of cell proliferation	49%	18%			
CCOc1c(N)c2c(c(OCC)c1OCC)[C@H]([C@H]1c3c(cc4c(c3OC)OCO4)CCN1C)OC2=O [E1]				reversed	Approximately 48%	H4R agonist activity similar to the one of CB
CCOc1c(N)c2c(c(OCC)c1OCC)[C@@H]([C@@H]1c3c(cc4c(c3OC)OCO4)CCN1C)OC2=O [E2]				reversed	Approximately 60%	H4R agonist activity similar to the one of CB
